For 16 compounds, IC50 results are on record in patent US20120270844A1, “METHODS FOR TREATING ALZHEIMER'S DISEASE” (aFRAXis, Inc., priority 2009, published 2012).

Assay type in all cases: biochemical
In experiment [1] the target is PAK4 (Homo sapiens, UniProt O96013). In words: Z'Lyte fluorescence-based (FRET) PAK kinase assay, PAK4. As to conditions: 5 μM ATP. The method, then: (§1) A fluorescence-based assay format is used to determine IC50 values of test compounds in vitro. Purified PAK kinase is incubated with ATP, and a test compound at various concentrations and a substrate peptide containing two fluorophores. In a second step, the reaction mix is incubated with a site-specific protease that cleaves non-phosphorylated bat not phosphorylated substrate peptide, disrupting the FRET signal generated by the two fluorophores in the cleaved peptide (Z′Lyte™ Kinase assay platform; Life Technologies).
PAK4, sequence (O96013 whole entry): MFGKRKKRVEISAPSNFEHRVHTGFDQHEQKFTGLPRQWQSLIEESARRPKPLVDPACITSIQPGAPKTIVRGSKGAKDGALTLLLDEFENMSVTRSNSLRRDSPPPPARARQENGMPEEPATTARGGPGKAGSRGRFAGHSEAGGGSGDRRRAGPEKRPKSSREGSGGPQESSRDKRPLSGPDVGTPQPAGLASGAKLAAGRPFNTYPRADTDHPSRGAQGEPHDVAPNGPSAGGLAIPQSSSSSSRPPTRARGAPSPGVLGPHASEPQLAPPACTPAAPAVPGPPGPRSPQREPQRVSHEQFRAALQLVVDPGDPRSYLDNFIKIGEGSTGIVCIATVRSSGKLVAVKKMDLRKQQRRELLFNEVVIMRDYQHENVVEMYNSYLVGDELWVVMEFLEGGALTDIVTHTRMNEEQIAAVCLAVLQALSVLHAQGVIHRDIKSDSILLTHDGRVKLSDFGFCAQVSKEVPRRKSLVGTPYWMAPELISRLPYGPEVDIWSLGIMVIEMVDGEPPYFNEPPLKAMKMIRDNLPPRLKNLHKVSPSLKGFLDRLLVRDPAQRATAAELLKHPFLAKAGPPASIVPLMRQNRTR
(§2) Reagents: 50 mM HEPES, pH 7.5; 0.01% BRIJ-35; […]; 1 mM EGTA, 2 uM substrate peptide Ser/Thr20 (proprietary Life Technologies Sequence), PAK enzyme [2.42-30.8 ng for PAK1, 0.29-6 ng for PAK2, 1.5-20 ng for PAK3 and 0.1-0.86 ng for PAK4; actual enzyme amounts depend on lot activity of the enzyme preparation]
(§3) Test compounds are dissolved in DMSO at various concentrations; the final DMSO concentration in the assay reaction is 1%.
(§4) ATP concentration at […] apparent is used in the assay [50 ┌M ATP for PAK1 assay, 75 ┌M ATP for PAK2 assay, 100 μM ATP for PAK3 assay, 5 μM ATP for PAK4 assay] in a total assay volume of 10 μl. Assay reactions are incubated at room temperature for 1 hr. Following the kinase reaction, 5 μl of 1:256 dilution of development solution A (Life Technologies) is added and the reaction mix is incubated for an additional 1 hr at room temperature.
(§5) Plates are analyzed in a standard fluorescence plate reader (Tecan or equivalent) using an excitation wavelength of 400 nn and emission wavelengths of 445 nm and 520 nm.
(§6) Inhibition of kinase reaction is determined by emission ratio=emission@445 nm/emission@520 nm
(§7) A fluorescence-based assay format is used to determine IC50 values of test compounds in vitro. Purified PAK kinase is incubated with ATP, and a test compound at various concentrations and a substrate peptide containing two fluorophores. In a second step, the reaction mix is incubated with a site-specific protease that cleaves non-phosphorylated but not phosphorylated substrate peptide, disrupting the FRET signal generated by the two fluorophores in the cleaved peptide (Z'Lyte™ Kinase assay platform Life Technologies).
(§8) Reagents: 50 mM HEPES, pH 7.5; 0.01% BRIJ-35; 10 mM MgCl2; 1 mM EGTA, 2 uM substrate peptide Ser/Thr20 (proprietary Life Technologies Sequence), PAK enzyme [2.42-30.8 ng for PAK1, 0.29-6 ng for PAK2, 1.5-20 ng for PAK3 and 0.1-0.86 ng for PAK4; actual enzyme amounts depend on lot activity of the enzyme preparation]
(§9) ATP concentration at Km apparent is used in the assay [50 μMATP for PAK1 assay, 75 µM ATP for PAK2 assay, 100 μM ATP for PAK3 assay, 5 μM ATP for PAK4 assay] in a total assay volume of […] Assay reactions are incubated at room temperature for 1 hr. Following the kinase reaction. […] of 1:256 dilution of development solution A (Life Technologies) is added and the reaction mix is incubated for an additional 1 hr at room temperature.
(§10) Plates are analyzed in a standard fluorescence plate reader (Teem or equivalent) using an excitation wavelength of 400 nm and emission wavelengths of 445 nm and 520 nm.

The target in experiment [2] is PAK1 (Homo sapiens, UniProt Q13153). As to the kind of experiment: Z'Lyte fluorescence-based (FRET) PAK kinase assay, PAK1. As to conditions: 50 μM ATP. The method, then: as §1, §2, §3, §4, §5, §6, §7, §8, §9, §10
PAK1, sequence (Q13153 whole entry): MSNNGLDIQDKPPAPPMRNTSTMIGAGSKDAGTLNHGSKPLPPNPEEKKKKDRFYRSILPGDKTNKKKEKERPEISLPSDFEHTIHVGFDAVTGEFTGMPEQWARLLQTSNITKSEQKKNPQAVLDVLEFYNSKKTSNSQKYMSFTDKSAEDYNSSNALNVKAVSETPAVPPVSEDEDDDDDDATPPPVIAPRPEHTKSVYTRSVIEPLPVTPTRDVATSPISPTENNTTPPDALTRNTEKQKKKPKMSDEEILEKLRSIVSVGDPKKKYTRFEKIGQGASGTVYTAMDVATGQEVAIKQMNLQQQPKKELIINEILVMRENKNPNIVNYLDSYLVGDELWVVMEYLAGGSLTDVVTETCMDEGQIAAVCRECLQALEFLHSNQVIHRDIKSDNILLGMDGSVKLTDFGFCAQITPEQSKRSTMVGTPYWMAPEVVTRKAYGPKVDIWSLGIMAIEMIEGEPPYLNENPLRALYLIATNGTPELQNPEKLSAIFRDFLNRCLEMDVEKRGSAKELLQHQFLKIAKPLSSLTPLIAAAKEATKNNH
For experiment [3], the target named is PAK2 (Homo sapiens, UniProt Q13177). In words: Z'Lyte fluorescence-based (FRET) PAK kinase assay, PAK2. How it is done: as §1, §2, §3, §4, §5, §6, §7, §8, §9, §10
PAK2, sequence (Q13177 whole entry): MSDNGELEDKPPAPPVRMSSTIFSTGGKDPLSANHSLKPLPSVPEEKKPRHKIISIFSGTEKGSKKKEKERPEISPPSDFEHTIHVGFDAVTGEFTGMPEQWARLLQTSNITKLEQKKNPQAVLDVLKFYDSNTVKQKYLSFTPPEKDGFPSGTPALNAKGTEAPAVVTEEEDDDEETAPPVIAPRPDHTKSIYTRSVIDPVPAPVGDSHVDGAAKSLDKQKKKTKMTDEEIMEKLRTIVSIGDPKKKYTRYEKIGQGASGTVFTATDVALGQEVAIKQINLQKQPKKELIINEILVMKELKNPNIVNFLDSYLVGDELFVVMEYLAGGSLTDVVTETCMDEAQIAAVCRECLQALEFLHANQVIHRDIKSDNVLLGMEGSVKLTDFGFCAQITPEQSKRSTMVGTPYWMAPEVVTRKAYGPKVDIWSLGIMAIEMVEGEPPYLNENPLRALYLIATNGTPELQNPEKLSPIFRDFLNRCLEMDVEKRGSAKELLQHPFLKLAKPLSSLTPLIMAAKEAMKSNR
In experiment [4] the target is PAK3 (Homo sapiens, UniProt O75914). In words: Z'Lyte fluorescence-based (FRET) PAK kinase assay, PAK3. As to conditions: 100 μM ATP. How it is done:
as §1, §2, §3, §4, §5, §6, §7, §8, §9, §10

The mark [5] stands for this setting: Table 1 of Example 100, 75 μM ATP.
The mark [6] stands for this setting: Table 1 of Example 29 (own compound numbering).

Some results are limits rather than exact numbers.

PAK3, sequence (O75914 whole entry): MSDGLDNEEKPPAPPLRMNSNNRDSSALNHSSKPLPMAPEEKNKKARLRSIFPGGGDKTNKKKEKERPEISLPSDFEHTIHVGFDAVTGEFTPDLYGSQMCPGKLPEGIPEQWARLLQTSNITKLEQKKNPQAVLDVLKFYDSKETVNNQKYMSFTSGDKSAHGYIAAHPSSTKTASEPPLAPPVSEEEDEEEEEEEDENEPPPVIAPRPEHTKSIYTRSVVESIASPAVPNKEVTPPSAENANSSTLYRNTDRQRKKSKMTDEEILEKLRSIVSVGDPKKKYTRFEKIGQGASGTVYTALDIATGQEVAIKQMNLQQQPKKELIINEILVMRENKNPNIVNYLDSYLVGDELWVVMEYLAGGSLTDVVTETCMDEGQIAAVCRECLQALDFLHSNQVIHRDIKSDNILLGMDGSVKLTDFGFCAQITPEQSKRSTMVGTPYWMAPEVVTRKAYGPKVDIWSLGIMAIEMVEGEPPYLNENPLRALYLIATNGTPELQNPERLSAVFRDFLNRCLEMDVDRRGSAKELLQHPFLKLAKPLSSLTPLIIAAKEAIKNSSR

Consider `CN1CCN(c2ccc(Nc3ncc4ccc(=O)n(Cc5ccccc5F)c4n3)cc2)CC1` [Compound 35], for which the IC50 (commonly the point on the concentration scale where inhibition reaches its midpoint) in experiment [1] (Table 1 of Example 100) was in the range of 1 to 10 µM; in experiment [2] (Table 1 of Example 100), 1000 to 10000 nM; in experiment [3] (setting [5]), 1 to 10 µM.
Consider `CN1CCN(c2ccc(Nc3ncc4ccc(=O)n(Cc5ccccc5C#N)c4n3)cc2)CC1` [Compound 40], for which the IC50 was 1 to 10 µM in experiment [1] (Table 1 of Example 100), under 1000 nM in experiment [2] (Table 1 of Example 100) and under 1 µM in experiment [3] (setting [5]).
The corresponding values for `CN1CCN(c2ccc(Nc3ncc4ccc(=O)n(Cc5ccncc5)c4n3)cc2)CC1` [Compound 37] are over 10 µM, 1000 to 10000 nM and over 10 µM.
As to `O=c1ccc2cnc(Nc3ccc(N4CCOCC4)cc3)nc2n1C1CCCC1` [Compound 2], the concentration for half-maximal inhibition (IC50) is 1 to 10 µM in experiment [1] (Table 1 of Example 100), over 10000 nM in experiment [2] (Table 1 of Example 100) and over 10 µM in experiment [3] (setting [5]).
In the case of `O=c1ccc2cnc(Nc3ccc(N4CCNCC4)c(F)c3)nc2n1Cc1c(Cl)cccc1C1CC1` [Compound 137], the IC50 is 1 to 10 µM in experiment [1] (setting [6]), under 1000 nM in experiment [2] (setting [6]) and under 1000 nM in experiment [4] (setting [6]).
Consider `CN(C)CCNc1ccc(Nc2ncc3ccc(=O)n(C4CCCC4)c3n2)cc1` [Compound 4], for which the IC50 in experiment [1] (Table 1 of Example 100) is 1 to 10 µM; in experiment [2] (Table 1 of Example 100), 1000 to 10000 nM; in experiment [3] (setting [5]), 1 to 10 µM.
In the case of `O=c1c(-c2ccccc2)cc2cnc(Nc3ccc(N4CCNCC4)cc3)nc2n1Cc1ccccc1C(F)(F)F` [Compound 163], the half-maximal inhibitory concentration (IC50) in experiment [1] (setting [6]) was 1 to 10 µM; in experiment [2] (setting [6]) it was under 1000 nM; in experiment [4] (setting [6]), under 1000 nM.
As for `CN1CCN(c2ccc(Nc3nccc(-c4ccc(O)nc4)n3)cc2)CC1` [Compound 143], the IC50 in experiment [1] (setting [6]) was over 10 µM; in experiment [2] (setting [6]) it was 1000 to 10000 nM; in experiment [3] (Table 1 of Example 29 (own compound numbering), 75 µM ATP), over 10 µM.
With `CSc1cccc(F)c1Cn1c(=O)ccc2cnc(Nc3ccc(N4CCN(C)CC4)cc3)nc21` [compound 99], the IC50 in experiment [1] (Table 1 of Example 100) is under 1 µM; in experiment [2] (Table 1 of Example 100) it was under 1000 nM; in experiment [4] (Table 1 of Example 100), under 1000 nM.
For the compound `CN1CCN(c2ccc(Nc3ncc4ccc(=O)n(Cc5ccccc5OC(F)(F)F)c4n3)cc2)CC1` [compound 97], the half-inhibitory concentration (IC50) in experiment [1] (setting [6]) was under 1 µM; in experiment [4] (setting [6]), under 1000 nM.
Turning to `O=c1c(-c2ccccc2)cc2cnc(Nc3ccc(N4CCNCC4)cc3)nc2n1Cc1ccccc1C(F)(F)F` [compound 94], the IC50 in experiment [1] (Table 1 of Example 100) is 1 to 10 µM; in experiment [2] (Table 1 of Example 100), under 1000 nM; in experiment [4] (Table 1 of Example 100), under 1000 nM.
On to `COc1ccccc1Cn1c(=O)ccc2cnc(Nc3ccc(N4CCN(C)CC4)cc3)nc21` [Compound 34], for which the IC50 in experiment [1] (Table 1 of Example 100) was 1 to 10 µM; in experiment [2] (Table 1 of Example 100), under 1000 nM; in experiment [3] (setting [5]) it was 1 to 10 µM.
In the case of `CN1CCN(c2ccc(Nc3ncc4ccc(=O)n(Cc5ccccc5OC(F)(F)F)c4n3)cc2)CC1` [Compound 41], the IC50 in experiment [1] (Table 1 of Example 100) was 1 to 10 µM; in experiment [2] (Table 1 of Example 100), under 1000 nM; in experiment [3] (setting [5]), under 1 µM.
On the same counts, the results for `CN1CCN(c2ccc(Nc3ncc4ccc(=O)n(Cc5ccccn5)c4n3)cc2)CC1` [Compound 36] are 1 to 10 µM, 1000 to 10000 nM and over 10 µM.
On the same counts, the results for `CN1CCN(c2ccc(Nc3ncc4ccc(=O)n(Cc5cccc(F)c5)c4n3)cc2)CC1` [Compound 27] are 1 to 10 µM, 1000 to 10000 nM and 1 to 10 µM.
Consider `CN1CCN(c2ccc(Nc3ncc4ccc(=O)n(Cc5ccc(Cl)cc5)c4n3)cc2)CC1` [Compound 30], for which the IC50 was over 10 µM in experiment [1] (Table 1 of Example 100), 1000 to 10000 nM in experiment [2] (Table 1 of Example 100) and over 10 µM in experiment [3] (setting [5]).
